This is an account of results in ChEMBL document CHEMBL1123283, “Quinazoline antifolates inhibiting thymidylate synthase: variation of the amino acid” (1986).

The structures appear in SMILES notation.

The test system of one assay is L1210. Kind of assay: Inhibitory dose for L1210 cells in culture. Not tested at higher concentrations because of their limited solubility. It is filed as functional. The conditions noted are these: Mus musculus, read-out: ID50 (the source's name).
The target in assay [1] is Thymidylate synthase (Mus musculus) (UniProt P07607).
Chain of Thymidylate synthase (Mus musculus) (P07607 whole entry, looked up): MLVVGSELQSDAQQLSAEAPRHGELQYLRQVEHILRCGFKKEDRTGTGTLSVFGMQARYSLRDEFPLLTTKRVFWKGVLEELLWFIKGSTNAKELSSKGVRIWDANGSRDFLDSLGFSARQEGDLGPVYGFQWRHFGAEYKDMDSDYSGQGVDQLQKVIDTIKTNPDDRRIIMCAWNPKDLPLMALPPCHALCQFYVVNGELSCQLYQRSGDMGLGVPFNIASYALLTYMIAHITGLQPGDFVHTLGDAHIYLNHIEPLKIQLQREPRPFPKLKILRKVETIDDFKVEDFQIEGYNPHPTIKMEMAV
Description: Inverse relative potency for the inhibition of L1210 thymidylate synthase

In the case of `C#CCN(Cc1ccc2nc(N)nc(O)c2c1)c1ccc(C(=O)O)cc1`, the IC50 with L1210 is more than 200 µM. The compound further displayed a Potency in assay [1] of 84. On to `C#CCN(Cc1ccc2nc(N)nc(O)c2c1)c1ccc(C(=O)NC(C)C(=O)O)cc1` (stereo not drawn), for which the IC50 in the assay with L1210 was more than 10 µM. Besides, the Potency in assay [1] is 5.2. As for `C#CCN(Cc1ccc2[nH]c(N)nc(=O)c2c1)c1ccc(C(=O)NC(CCC(=O)O)C(=O)O)cc1` (stereo not drawn), the IC50 in the assay with L1210 is 5 µM.

In the case of `C#CCN(Cc1ccc2nc(N)nc(O)c2c1)c1ccc(C(=O)NC(CC(=O)O)C(=O)O)cc1` (stereo not drawn), in the assay on L1210, the IC50 is more than 137 µM. The compound further showed a Potency in assay [1] of 8.9.

As for `C#CCN(Cc1ccc2nc(N)nc(O)c2c1)c1ccc(C(=O)NC(CCC(=O)OCC)C(=O)OCC)cc1` (stereo not drawn), in the assay on L1210, the IC50 stood at 52 µM. In assay [1], this compound gave a Potency of more than 62. The like results for `C#CCN(Cc1ccc2nc(N)nc(O)c2c1)c1ccc(C(=O)NCC(=O)O)cc1` were, in that order, more than 100 µM and 20.7. For `C#CCN(Cc1ccc2nc(N)nc(O)c2c1)c1ccc(CCCC(=O)O)cc1`, the IC50 in the assay with L1210 is more than 10 µM. In assay [1], the Potency was found to be 333.
